Measurements taken from PubChem BioAssay AID2060907 (Molecular Pharmacology Branch, DTP, NCI, 2025).
pIC50: −log10 of the molar value.

Test system: 388556-164-R-J1-PDC complex spheroid viability
Assay: Anticancer human tumor 388556-164-R-J1-PDC patient-derived colon adenocarcinoma cell line growth inhibition [RAS]
Conditions: for pIC50: curve of first compound; for viability, T/C: stronger effect = lower value
How it was run: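 Agents were tested in combination matrices in half-log decrements from a top concentration at or near clinical Cmax (10 microM if undetermined). Targets were multi-cell spheroids of tumour lines plus HUVEC and MSC stromal cells.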

[1] = second compound 0.000949 µM, first compound 0.0316 µM
[2] = second compound 0.000949 µM, first compound 0.1 µM
[3] = second compound 0.000949 µM, first compound 0.316 µM
[4] = second compound 0.000949 µM, first compound 1 µM
[5] = second compound 0.003 µM, first compound 0.0316 µM
[6] = second compound 0.003 µM, first compound 0.1 µM
[7] = second compound 0.003 µM, first compound 0.316 µM
[8] = second compound 0.003 µM, first compound 1 µM
[9] = second compound 0.00949 µM, first compound 0.0316 µM
[10] = second compound 0.00949 µM, first compound 0.1 µM
[11] = second compound 0.00949 µM, first compound 0.316 µM
[12] = second compound 0.00949 µM, first compound 1 µM
[13] = second compound 0.03 µM, first compound 0.0316 µM
[14] = second compound 0.03 µM, first compound 0.1 µM
[15] = second compound 0.03 µM, first compound 0.316 µM
[16] = second compound 0.03 µM, first compound 1 µM
[17] = second compound 0.0949 µM, first compound 0.0316 µM
[18] = second compound 0.0949 µM, first compound 0.1 µM
[19] = second compound 0.0949 µM, first compound 0.316 µM
[20] = second compound 0.0949 µM, first compound 1 µM
[21] = second compound 0.3 µM, first compound 0.0316 µM
[22] = second compound 0.3 µM, first compound 0.1 µM
[23] = second compound 0.3 µM, first compound 0.316 µM
[24] = second compound 0.3 µM, first compound 1 µM
[25] = second compound 0.000949 µM, first compound 0.00316 µM
[26] = second compound 0.000949 µM, first compound 0.01 µM
[27] = second compound 0.003 µM, first compound 0.00316 µM
[28] = second compound 0.003 µM, first compound 0.01 µM
[29] = second compound 0.00949 µM, first compound 0.00316 µM
[30] = second compound 0.00949 µM, first compound 0.01 µM
[31] = second compound 0.03 µM, first compound 0.00316 µM
[32] = second compound 0.03 µM, first compound 0.01 µM
[33] = second compound 0.0949 µM, first compound 0.00316 µM
[34] = second compound 0.0949 µM, first compound 0.01 µM
[35] = second compound 0.3 µM, first compound 0.00316 µM
[36] = second compound 0.3 µM, first compound 0.01 µM
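Also: spheroids exposed to compound for 7 days before readout.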
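For viability, T/C in this document: 100% = DMSO vehicle control luminescence.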

Structure (SMILES): C[C@@H](NC(=O)c1ncnc(N)c1Cl)c1ncc(C(=O)Nc2cc(C(F)(F)F)c(Cl)cn2)s1 + CCn1c(-c2cccnc2C(C)OC)c2c3cc(ccc31)N1CCOC(CC(NC(=O)C(C(C)C)N(C)C(=O)C3(F)CCN(C(=O)C#CC(C)(C)N(C)C)CC3)C(=O)N3CCCC(N3)C(=O)OCC(C)(C)C2)C1
- pIC50 (second compound 0.000949 µM): < 5.00
- pIC50 (second compound 0.003 µM): < 5.00
- pIC50 (second compound 0.00949 µM): < 5.00
- pIC50 (second compound 0.03 µM): < 5.00
- pIC50 (second compound 0.0949 µM): < 5.00
- pIC50 (second compound 0.3 µM): < 5.00
- viability, T/C [1]: 113%
- viability, T/C [2]: 113%
- viability, T/C [3]: 115%
- viability, T/C [4]: 123%
- viability, T/C (second compound 0.000949 µM, first compound 3.16 µM): 117%
- viability, T/C (second compound 0.000949 µM, first compound 10 µM): 94.7%
- viability, T/C [5]: 117%
- viability, T/C [6]: 102%
- viability, T/C [7]: 119%
- viability, T/C [8]: 108%
- viability, T/C (second compound 0.003 µM, first compound 3.16 µM): 121%
- viability, T/C (second compound 0.003 µM, first compound 10 µM): 96.7%
- viability, T/C [9]: 105%
- viability, T/C [10]: 109%
- viability, T/C [11]: 113%
- viability, T/C [12]: 108%
- viability, T/C (second compound 0.00949 µM, first compound 3.16 µM): 123%
- viability, T/C (second compound 0.00949 µM, first compound 10 µM): 105%
- viability, T/C [13]: 113%
- viability, T/C [14]: 102%
- viability, T/C [15]: 102%
- viability, T/C [16]: 109%
- viability, T/C (second compound 0.03 µM, first compound 3.16 µM): 117%
- viability, T/C (second compound 0.03 µM, first compound 10 µM): 91.1%
- viability, T/C [17]: 93.4%
- viability, T/C [18]: 115%
- viability, T/C [19]: 110%
- viability, T/C [20]: 119%
- viability, T/C (second compound 0.0949 µM, first compound 3.16 µM): 113%
- viability, T/C (second compound 0.0949 µM, first compound 10 µM): 90.7%
- viability, T/C [21]: 87.3%
- viability, T/C [22]: 108%
- viability, T/C [23]: 99.6%
- viability, T/C [24]: 104%
- viability, T/C (second compound 0.3 µM, first compound 3.16 µM): 115%
- viability, T/C (second compound 0.3 µM, first compound 10 µM): 88%

Structure (SMILES): O=C(c1ccc(F)c(F)c1Nc1ccc(I)cc1F)N1CC(O)([C@@H]2CCCCN2)C1 + CCn1c(-c2cc(N3CCN(C)CC3)cnc2C(C)OC)c2c3cc(ccc31)-c1csc(n1)CC(NC(=O)C1CC1C)C(=O)N1CCCC(N1)C(=O)OCC(C)(C)C2
- pIC50 (second compound 0.000949 µM): 6.88
- pIC50 (second compound 0.003 µM): 7.07
- pIC50 (second compound 0.00949 µM): 7.44
- pIC50 (second compound 0.03 µM): 8.08
- pIC50 (second compound 0.0949 µM): > 8.50
- pIC50 (second compound 0.3 µM): > 8.50
- viability, T/C [25]: 96%
- viability, T/C [26]: 91%
- viability, T/C [1]: 72.6%
- viability, T/C [2]: 58.3%
- viability, T/C [3]: 31.8%
- viability, T/C [4]: 19.9%
- viability, T/C [27]: 97.5%
- viability, T/C [28]: 83.3%
- viability, T/C [5]: 70.5%
- viability, T/C [6]: 46%
- viability, T/C [7]: 29.1%
- viability, T/C [8]: 19.3%
- viability, T/C [29]: 80.9%
- viability, T/C [30]: 69.2%
- viability, T/C [9]: 50.1%
- viability, T/C [10]: 38%
- viability, T/C [11]: 24.1%
- viability, T/C [12]: 18.7%
- viability, T/C [31]: 63.6%
- viability, T/C [32]: 45.8%
- viability, T/C [13]: 36.9%
- viability, T/C [14]: 30.1%
- viability, T/C [15]: 19.7%
- viability, T/C [16]: 18.6%
- viability, T/C [33]: 35%
- viability, T/C [34]: 33.2%
- viability, T/C [17]: 30.3%
- viability, T/C [18]: 18.4%
- viability, T/C [19]: 17.9%
- viability, T/C [20]: 18.8%
- viability, T/C [35]: 28.3%
- viability, T/C [36]: 26.1%
- viability, T/C [21]: 20.1%
- viability, T/C [22]: 16.9%
- viability, T/C [23]: 18.4%
- viability, T/C [24]: 17%

Structure (SMILES): Cc1nc(N2CCC3(CC2)COC(C)C3N)c(CO)nc1Sc1ccnc(N)c1Cl (stereo unspecified)
- viability, T/C (compound 0.1 µM): 81.2% [middle of 4 runs]
- viability, T/C (compound 0.316 µM): 70.5% [middle of 4 runs]
- viability, T/C (compound 1 µM): 62.4% [middle of 4 runs]
- viability, T/C (compound 3.16 µM): 53.9% [middle of 4 runs]
- viability, T/C (compound 10 µM): 46.1% [middle of 4 runs]

Structure (SMILES): CC(C)n1nc(-c2ccc3oc(N)nc3c2)c2c(N)ncnc21 + CCn1c(-c2cccnc2C(C)OC)c2c3cc(ccc31)N1CCOC(CC(NC(=O)C(C(C)C)N(C)C(=O)C3(F)CCN(C(=O)C#CC(C)(C)N(C)C)CC3)C(=O)N3CCCC(N3)C(=O)OCC(C)(C)C2)C1
- pIC50 (second compound 0.000949 µM): 7.25
- pIC50 (second compound 0.003 µM): 7.24
- pIC50 (second compound 0.00949 µM): 7.32
- pIC50 (second compound 0.03 µM): 7.21
- pIC50 (second compound 0.0949 µM): 7.24
- pIC50 (second compound 0.3 µM): 7.30
- viability, T/C (second compound 0.000949 µM, first compound 0.000316 µM): 95.8%
- viability, T/C (second compound 0.000949 µM, first compound 0.001 µM): 93.2%
- viability, T/C [25]: 88.7%
- viability, T/C [26]: 74.5%
- viability, T/C [1]: 63.6%
- viability, T/C [2]: 38%
- viability, T/C (second compound 0.003 µM, first compound 0.000316 µM): 102%
- viability, T/C (second compound 0.003 µM, first compound 0.001 µM): 90.6%
- viability, T/C [27]: 86.7%
- viability, T/C [28]: 77.6%
- viability, T/C [5]: 64.8%
- viability, T/C [6]: 37.7%
- viability, T/C (second compound 0.00949 µM, first compound 0.000316 µM): 99.3%
- viability, T/C (second compound 0.00949 µM, first compound 0.001 µM): 97.8%
- viability, T/C [29]: 96%
- viability, T/C [30]: 77.3%
- viability, T/C [9]: 60%
- viability, T/C [10]: 34.9%
- viability, T/C (second compound 0.03 µM, first compound 0.000316 µM): 100%
- viability, T/C (second compound 0.03 µM, first compound 0.001 µM): 87.6%
- viability, T/C [31]: 89.1%
- viability, T/C [32]: 82.5%
- viability, T/C [13]: 60.5%
- viability, T/C [14]: 41.3%
- viability, T/C (second compound 0.0949 µM, first compound 0.000316 µM): 93%
- viability, T/C (second compound 0.0949 µM, first compound 0.001 µM): 95.6%
- viability, T/C [33]: 80.2%
- viability, T/C [34]: 78.6%
- viability, T/C [17]: 63.8%
- viability, T/C [18]: 37.9%
- viability, T/C (second compound 0.3 µM, first compound 0.000316 µM): 84.3%
- viability, T/C (second compound 0.3 µM, first compound 0.001 µM): 89.4%
- viability, T/C [35]: 77.2%
- viability, T/C [36]: 72.5%
- viability, T/C [21]: 58.9%
- viability, T/C [22]: 36.8%
